Experimental findings from paper PMC6195765 (Organic letters, 2018) are described below.

This assay relates to PvfC. The assay is described as follows: ATP-[…]PPi exchange assay. It is filed as biochemical, Pseudomonas entomophila. The note with it: ATP co-substrate; adenylation domain.

In general, Km refers to the concentration of substrate that gives half-maximal velocity. Consider `CC(C)[C@H](N)C(=O)O` [L-Val], for which the Km was determined as 3.4 ± 0.7 mM.
